In patent publication US7851626B2, “4,4,5,5, tetrasubstituted imidazolines” (Hoffmann-La Roche Inc., priority 2005, dated 2010) one finds IC50 data, which are given here for 3 compounds.

The target of this assay is interaction between p53 and MDM2 proteins (Homo sapiens, UniProt Q00987). The assay is described as follows: HTRF assay of inhibition of the p53-MDM2 interaction (GST-MDM2 and biotinylated p53 peptide). Format: binding. Particulars: recombinant GST-tagged MDM2, biotinylated p53 peptide, 37° C. for 1 h. On the procedure: The ability of the compounds to inhibit the interaction between p53 and MDM2 proteins was measured by an HTRF (homogeneous time-resolved fluorescence) assay in which recombinant GST-tagged MDM2 binds to a peptide that resembles the MDM2-interacting region of p53 (Lane et al.). Binding of GST-MDM2 protein and p53-peptide (biotinylated on its N-terminal end) is registered by the FRET (fluorescence resonance energy transfer) between Europium (Eu)-labeled anti-GST antibody and streptavidin-conjugated Allophycocyanin (APC).
Sequence of interaction between p53 and MDM2 proteins (Q00987 whole entry): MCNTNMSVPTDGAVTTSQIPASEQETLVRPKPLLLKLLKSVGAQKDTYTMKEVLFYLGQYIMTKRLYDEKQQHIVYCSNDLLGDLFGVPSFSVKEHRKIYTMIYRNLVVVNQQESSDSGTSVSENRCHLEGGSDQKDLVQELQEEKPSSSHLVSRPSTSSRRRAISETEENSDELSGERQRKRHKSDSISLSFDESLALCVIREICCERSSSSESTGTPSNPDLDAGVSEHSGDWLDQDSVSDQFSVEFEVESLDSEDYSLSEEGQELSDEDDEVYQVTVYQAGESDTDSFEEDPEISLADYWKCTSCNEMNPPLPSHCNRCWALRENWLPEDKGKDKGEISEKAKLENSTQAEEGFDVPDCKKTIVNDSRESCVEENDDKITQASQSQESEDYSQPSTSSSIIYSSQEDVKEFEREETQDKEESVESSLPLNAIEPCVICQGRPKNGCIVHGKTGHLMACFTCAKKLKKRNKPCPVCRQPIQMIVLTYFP
Test is performed in black flat-bottom 384-well plates (Costar) in a total volume of 40 uL containing: 90 nM biotinylate peptide, 160 ng/mL GST-MDM2, 20 nM streptavidin-APC (PerkinElmerWallac), 2 nM Eu-labeled anti-GST-antibody (PerkinElmerWallac), 0.2% bovine serum albumin (BSA), 1 mM dithiothreitol (DTT) and 20 mM Tris-borate saline (TBS) buffer as follows: Add 10 uL of GST-MDM2 (640 ng/mL working solution) in reaction buffer to each well. […] Incubate at 37° C. for 1 h. […] If not specified, the reagents were purchased from Sigma Chemical Co.
On the technique in general: TR-FRET usually uses a lanthanide donor and a delayed reading to cut background.
What is called IC50 is the concentration at which inhibition is half-maximal. In the case of `CCOc1cc(C(C)(C)C)ccc1C1=N[C@@](C)(c2ccc(Cl)cc2)[C@@H](c2ccc(Cl)cc2)N1C(=O)N1CCN(C(C)=O)CC1` [Example 177, 1-{4-[(4S,5R)-2-(4-tert-Butyl-2-ethoxy-phenyl)-4,5-bis-(4-chloro-phenyl)-4-methyl-4,5-dihydro-imidazole-1-carbonyl]-piperazin-1-yl}-ethanone], the half-inhibitory concentration (IC50) was found to be 107 nM.
With `COc1ccc(C2=N[C@@](C)(c3ccc(Cl)cc3)[C@@H](c3ccc(Cl)cc3)N2C(=O)N2CCN(C(C)=O)CC2)c(OC(C)C)c1` (racemic) [Example 190, rac-1-{4-[(4S*,5R*)-4,5-Bis-(4-chloro-phenyl)-2-(2-isopropoxy-4-methoxy-phenyl)-4-methyl-4,5-dihydro-imidazole-1-carbonyl]-piperazin-1-yl}-ethanone] the figure was 48 nM.
With `CCOc1cc(S(=O)(=O)N2CCCC2)ccc1C1=N[C@@](C)(c2ccc(Cl)cc2)[C@@](C)(c2ccc(Cl)cc2)N1C(=O)N1CCN(CC(N)=O)CC1` [Example 35, 2-(4-{(4S,5R)-4,5-Bis-(4-chloro-phenyl)-2-[2-ethoxy-4-(pyrrolidine-1-sulfonyl)-phenyl]-4,5-dimethyl-4,5-dihydro-imidazole-1-carbonyl}-piperazin-1-yl)-acetamide] the figure was 17 nM.
